Earlier results on five compounds are cited in patent US20210299077A1, “LIPOSOMAL REDUCED GLUTATHIONE (LRG) IN COMBINATION WITH IVERMECTIN FOR THE TREATMENT OF COVID-19” (Your Energy Systems, LLC, priority 2020, published 2021).

For series [1], the system named is SARS-CoV. The following applies: in vitro studies.
For series [2] the following is noted: single oral dose of 2000 mg.
Series [3] deals with SARS-CoV-2.
Series [4] has as its system influenza viruses. The following applies: 300 mg twice a day for 5 days.
The conditions of series [5]: patients receiving remdesivir.
Series [6] relates to SARS-CoV. As to conditions: mouse SARS-CoV model.
Series [7] relates to COVID-19. The following applies: COVID-19 patients.

Read-outs that look alike come from different tables or passages of the source.

Consider `O=C(Nc1ccc([N+](=O)[O-])cc1Cl)c1cc(Cl)ccc1O` [niclosamide], for which the aqueous solubility entry is listed as “limited aqueous solubility”. Besides, the “inhibition of SARS-CoV replication” value in series [1] is on record as “able to inhibit SARS-CoV replication at a micromolar concentration”. In addition, the maximum serum concentration in series [2] is 0.25 to 6.0 µg/mL. Moreover, in series [2] (same range in μM), the maximum serum concentration was 0.76 to 18.3 µM.

For the compound `CCN(CCO)CCCC(C)Nc1ccnc2cc(Cl)ccc12` (stereo not shown) [hydroxychloroquine], the “in-vitro activity against SARS-CoV-2” value in series [3] is on record as “relatively higher potency against SARS-CoV-2”.

`CC(=O)Oc1ccccc1C(=O)Nc1ncc([N+](=O)[O-])s1` [NTZ, Nitazoxanide]: in series [4], the “symptoms and infectious viral load” value was “reduction of symptoms and infectious viral load”; the tolerability result is recorded as “well tolerated”.

On to `CCC(CC)COC(=O)[C@H](C)N[P@](=O)(OC[C@H]1O[C@@](C#N)(c2ccc3c(N)ncnn23)[C@H](O)[C@@H]1O)Oc1ccccc1` [Remdesivir], for which the adverse events entry in series [5] was “nausea, vomiting, rectal bleeding, and elevated liver enzymes”.

For the compound `CCN(CC)CCCC(C)Nc1ccnc2cc(Cl)ccc12` (stereo not shown) [chloroquine], the “efficacy in inhibiting viral replication” value in series [6] is recorded as “did not show efficacy”. Moreover, in series [7], the “clinical and virologic outcome versus a comparison group” value is “clinical and virologic benefit”.
